Counter-ions that a name gives are not always drawn.
Columns and labels:
rNHE3 = target: T1, rNHE3 (Rattus norvegicus, UniProt P26433); assay: Recovery of intracellular pH after acidification (BCECF fluorescence) in LAP1 fibroblasts; format: cell-based
T1 construct: expressed in transfected cells; host or cells: LAP1 cells (fibroblasts)
Protocol: In this test, the recovery in the intracellular pH (pHi) after an acidification was ascertained, which is initiated if the NHE3 is capable of functioning, even under bicarbonate-free conditions. For this purpose, the pHi was determined using the pH-sensitive fluorescent dye BCECF (Calbiochem, the precursor BCECF-AM is employed). The cells (fibroblasts, LAP1 cells) were initially loaded with BCECF. The BCECF fluorescence was determined in a “Ratio Fluorescence Spectrometer” (Photon Technology International, South Brunswick, N.J., USA) at excitation wavelengths of 505 and 440 nm and an emission wavelength of 535 nm and converted into the pHi using calibration curves. The cells were incubated in NH4Cl buffer (pH 7.4) (NH4Cl buffer: 115 mM NaCl, 20 mM NH4Cl, 5 mM KCl, 1 mM CaCl2, 1 mM MgSO4, 20 mM Hepes, 5 mM glucose, 1 mg/ml BSA; a pH of 7.4 is adjusted with 1 M NaOH) even during the BCECF loading. The intracellular acidification was induced by adding 975 μl of an NH4Cl-free buffer (see below) to 25 μl aliquots of the cells incubated in NH4Cl buffer. The subsequent rate of pH recovery was recorded for three minutes. To calculate the inhibitory potency of the tested substances, the cells were initially investigated in buffers with which a complete or absolutely no pH recovery took place. For complete pH recovery (100%), the cells were incubated in Na^+-containing buffer (133.8 mM NaCl, 4.7 mM KCl, 1.25 mM CaCl2, 1.25 mM MgCl2, 0.97 mM Na2HPO4, 0.23 mM NaH2PO4, 5 mM Hepes, 5 mM glucose, a pH of 7.0 is adjusted with 1 M NaOH). To determine the 0% value, the cells were incubated in an Na^+-free buffer (133.8 mM choline chloride, 4.7 mM KCl, 1.25 mM CaCl2, 1.25 mM MgCl2, 0.97 mM K2HPO4, 0.23 mM KH2PO4, 5 mM Hepes, 5 mM glucose, a pH of 7.0 is adjusted with 1 M KOH). The substances to be tested were made up in the Na^+-containing buffer. The recovery of the intracellular pH at each test concentration of a substance was expressed as a percentage of the maximum recovery. The IC50 value for the particular substance for the individual NHE subtypes was calculated from the pH recovery percentages using the Sigma-Plot program.

NHE3 = conditions: M. Donowitz et al., Am. J. Physiol. 276; cited from earlier work
[1] = mediated by alpha2 and I1 receptors; Ernsberger et al.; cited from earlier work
[2] = tested on: adrenergic alpha2 receptor; conditions: Ernsberger et al, Eur. J. Pharmacol. 134, 1, 1987; cited from earlier work
imidazoline I1 receptor = conditions: Ernsberger et al, Eur. J. Pharmacol. 134, 1, 1987; cited from earlier work

T1 sequence (P26433 29-831): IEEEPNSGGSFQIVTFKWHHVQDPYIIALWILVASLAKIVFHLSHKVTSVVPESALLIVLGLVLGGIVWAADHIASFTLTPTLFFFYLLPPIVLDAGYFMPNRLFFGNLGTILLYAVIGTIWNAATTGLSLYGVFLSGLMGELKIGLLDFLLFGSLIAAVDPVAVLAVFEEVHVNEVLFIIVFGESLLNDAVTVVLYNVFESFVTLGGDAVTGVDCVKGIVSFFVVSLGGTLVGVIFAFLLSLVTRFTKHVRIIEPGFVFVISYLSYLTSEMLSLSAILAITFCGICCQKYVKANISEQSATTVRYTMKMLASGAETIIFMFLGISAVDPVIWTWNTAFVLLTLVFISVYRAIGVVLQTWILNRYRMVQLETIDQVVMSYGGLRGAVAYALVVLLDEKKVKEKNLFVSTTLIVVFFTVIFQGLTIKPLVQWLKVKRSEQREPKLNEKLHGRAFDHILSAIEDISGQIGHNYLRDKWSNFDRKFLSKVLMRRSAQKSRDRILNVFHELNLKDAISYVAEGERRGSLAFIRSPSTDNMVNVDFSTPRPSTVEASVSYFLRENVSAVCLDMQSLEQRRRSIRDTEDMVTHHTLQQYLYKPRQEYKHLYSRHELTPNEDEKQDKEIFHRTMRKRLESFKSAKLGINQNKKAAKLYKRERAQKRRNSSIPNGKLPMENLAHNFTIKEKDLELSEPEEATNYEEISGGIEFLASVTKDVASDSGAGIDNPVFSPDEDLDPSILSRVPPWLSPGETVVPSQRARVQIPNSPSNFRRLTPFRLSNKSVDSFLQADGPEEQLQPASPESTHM

Row | SMILES | IC50 (rNHE3) | further results
1 | CN(c1nc2cc(F)ccc2[nH]1)c1c(Cl)cccc1Cl [Example 4, (2,6-Dichlorophenyl)(5-fluoro-1H-benzoimidazol-2-yl)methylamine] | 3.3 µM | 
2 | CC(C)N(c1nc2ccccc2[nH]1)c1c(Cl)cccc1Cl [Example 3, (1H-Benzoimidazol-2-yl)(2,6-dichlorophenyl)isopropylamine] | 9.3 µM | 
3 | CN(c1nc2ccccc2[nH]1)c1c(Cl)cccc1Cl [Example 2, (1H-Benzoimidazol-2-yl)(2,6-dichlorophenyl)methylamine hydrochloride] | 0.53 µM | 
4 | Clc1cccc(Cl)c1N(c1nc2ccccc2[nH]1)C1CCCC1 [Example 6, (1H-Benzoimidazol-2-yl)cyclopentyl(2,6-dichlorophenyl)amine] | 8.3 µM | 
5 | CC(C)[C@@H](CC[C@@H](C)[C@H]1CC[C@H]2[C@@H]3[C@H](O)C[C@H]4C[C@@H](NCCCNCCCCN)CC[C@]4(C)[C@H]3CC[C@]12C)OS(=O)(=O)O [Squalamine] |  | time to maximum strength of effect as NHE3 inhibitor (NHE3): only after one hour
6 | Clc1cccc(Cl)c1N=C1NCCN1 [Clonidine] |  | blood pressure-lowering effect [1]: strong blood pressure-lowering effect; affinity for the adrenergic alpha2 receptor [2]: high affinity; affinity for the imidazoline I1 receptor (imidazoline I1 receptor): high affinity
7 | CCN(c1nc2ccccc2[nH]1)c1c(Cl)cccc1Cl [Example 1, (1H-Benzoimidazol-2-yl)(2,6-dichlorophenyl)ethylamine] | 0.57 µM | 
8 | C=CCN(c1nc2ccccc2[nH]1)c1c(Cl)cccc1Cl [Example 5, Allyl(1H-benzoimidazol-2-yl)(2,6-dichlorophenyl)amine] | 1.5 µM | 

— patent US8067614B2, “N-substituted (benzoimidazol-2-yl)phenylamines, processes for their preparation, their use as a medicament or diagnostic aid, and a medicament comprising them” (Sanofi-Aventis Deutschland GmbH, priority 2003, dated 2011)
